Experimental data taken from publication PMC7375240, “Covalent Inhibitors Allosterically Block the Activation of Rho Family Proteins and Suppress Cancer Cell Invasion” (Advanced Science, 2020).

Experiments:
Cdc42 = target: T1, Cdc42 (Homo sapiens, UniProt P60953); experiment: pull-down of Cdc42 with its GEF; assay type: binding; details: Cdc42-GEF interaction (GEF probably human intersectin1 […]-1571), pH […]
T1 construct: full length, His6-tagged (pET28a), E. coli BL21(DE3)

Rac1 = target: T2, Rac1 (Homo sapiens, UniProt P63000); experiment: pull-down of Rac1 with its GEF; assay type: binding; details: Rac1-GEF interaction (GEF probably murine Tiam1 […]-1406), pH […]
T2 construct: full length, His6-tagged (pET28a), E. coli BL21(DE3)

T1 sequence (P60953 whole entry): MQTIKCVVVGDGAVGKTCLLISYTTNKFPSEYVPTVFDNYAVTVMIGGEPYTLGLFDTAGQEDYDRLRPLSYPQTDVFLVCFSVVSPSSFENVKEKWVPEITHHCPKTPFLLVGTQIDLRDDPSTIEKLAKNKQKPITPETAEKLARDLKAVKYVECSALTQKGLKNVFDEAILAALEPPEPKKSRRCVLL

C=CCOC(=O)C1=CS(=O)(=O)c2ccccc21 [DC-RC-063, DC-Rhoin]
pull-down of Cdc42 with its GEF (Cdc42): selectively inhibited the interactions between Rho family proteins (RhoA, Cdc42, and Rac1) | pull-down of Rac1 with its GEF (Rac1): selectively inhibited the interactions between Rho family proteins (RhoA, Cdc42, and Rac1)
